Measurements published in patent US11118200B2, “Method for preparing amines from aldehydes and ketones by biocatalysis” (COMMISSARIAT A L'ENERGIE ATOMIQUE ET AUX ENERGIES …, priority 2017, dated 2021).
Marks after values point to notes of the source that are not given here.

Experiments:
enzyme of SEQ ID NO:4 [1] = assay: Screening of carbonyl-containing compounds with ammonia as amine source (specific activity, absorbance at 340 nm); assay type: biochemical, Aminomonas paucivorans DSM 12260; design: key to Detection of the expected compound, SEQ ID NO: 4: d: detected activity; nd: not detected activity; details: ammonia as amine source; pH 9.5; 25° C.
Protocol: All the reactions were conducted at 25° C. in spectrophotometric cell (10 mm light path). To a mixture of ammonium formate buffer (2 M NH4HCO2/NH4OH, pH 9.5), NADH or NADPH (0.2 mM) and an appropriate amount of purified enzyme was added. Carbonyl-containing compound (5 or 10 mM) is then added to initiate the reaction (reaction final volume 100 μL). The initial slope measured at 340 nm determined the specific activity of the enzyme according to Beer-Lambert's law and the molar absorptivity of β-NADH (ϵ=6298 M^−1 cm^−1).

enzyme of SEQ ID NO:1 [2] = assay: as above; assay type: biochemical, Mycobacterium smegmatis; details: 10 mM of carbonyl-containing compound, ammonia as amine source
Protocol: (§1) All the reactions were conducted at 25° C. in spectrophotometric cell (10 mm light path). To a mixture of ammonium formate buffer (2 M NH4HCO2/NH4OH, pH 9.5), NADH or NADPH (0.2 mM) and an appropriate amount of purified enzyme was added.

enzyme of SEQ ID NO:3 [3] = assay: as above; assay type: biochemical, Microbacterium sp. MA1; details: 0.2 mM NADPH (best of NADH/NADPH); 10 mM of carbonyl-containing compound; ammonia as amine source
Protocol: as §1

enzyme of SEQ ID NO:2 [4] = assay: as above; assay type: biochemical, Cystobacter fuscus DSM 2262; details: 10 mM of carbonyl-containing compound, ammonia as amine source
Protocol: as §1

enzyme of SEQ ID NO:2 [5] = assay: Reduction of cyclic imine substrates; assay type: biochemical, Cystobacter fuscus DSM 2262
enzyme of SEQ ID NO:3 [6] = assay: Reduction of cyclic imine substrates; assay type: biochemical, Microbacterium sp. MA1
enzyme of SEQ ID NO:4 [7] = assay: Reduction of cyclic imine substrates; assay type: biochemical, Aminomonas paucivorans DSM 12260
enzyme of SEQ ID NO:1 [8] = assay: Reduction of cyclic imine substrates; assay type: biochemical, Mycobacterium smegmatis
[9] = 0.2 mM NADH (best of NADH/NADPH)
[10] = 0.2 mM NADPH (best of NADH/NADPH)

Specific activity, SEQ ID NO: 3 (enzyme of SEQ ID NO:3 [3]) | Specific activity, SEQ ID NO: 2 (enzyme of SEQ ID NO:2 [4]; [10]) | Specific activity, SEQ ID NO: 1 (enzyme of SEQ ID NO:1 [2]; [10]) | SMILES | further results
– | – | – | O=Cc1ccccc1 | Detection of the expected compound, SEQ ID NO: 4 (enzyme of SEQ ID NO:4 [1]): d
170.1^b mU.mg^-1 | 20.4^b mU.mg^-1 | – | CC1CCC(=O)CC1 | Specific activity, SEQ ID NO: 1 (enzyme of SEQ ID NO:1 [2]; [9]): 85.2^a mU.mg^-1
90.3^b mU.mg^-1 | 8.8^b mU.mg^-1 | 65.2^b mU.mg^-1 | CC1CCCC1=O (centres unmarked) | –
192.0^b mU.mg^-1 | 3.6^b mU.mg^-1 | 48.2^b mU.mg^-1 | CCC(=O)CC | –
324.4^b mU.mg^-1 | 42.4^b mU.mg^-1 | 177.7^b mU.mg^-1 | CC(=O)C(C)O (centres unmarked) | –
61.6^b mU.mg^-1 | – | 9.7^b mU.mg^-1 | CC1CC(=O)CC(C)C1 (centres unmarked) | –
60.6^b mU.mg^-1 | 24.2^b mU.mg^-1 | 5.6^b mU.mg^-1 | O=C1CCCC1 | –
23.3^b mU.mg^-1 | 13.9^b mU.mg^-1 | 7.7^b mU.mg^-1 | CC1CCC(=O)C1 (centres unmarked) | –
37.1^b mU.mg^-1 | – | 7.4^b mU.mg^-1 | O=C1C=CCCC1 | Specific activity, SEQ ID NO: 2 (enzyme of SEQ ID NO:2 [4]; [9]): 2.5^a mU.mg^-1
28.1^b mU.mg^-1 | – | 6.8^b mU.mg^-1 | CCCC(=O)CC | –
245.6^b mU.mg^-1 | – | 125.8^b mU.mg^-1 | CC(=O)C(C)C | Specific activity, SEQ ID NO: 2 (enzyme of SEQ ID NO:2 [4]; [9]): 68.2^a mU.mg^-1
– | – | – | CC1=NCCC1 | reduction of cyclic imine by enzyme of SEQ ID NO:2 (in words) (enzyme of SEQ ID NO:2 [5]): able to catalyze; reduction of cyclic imine by enzyme of SEQ ID NO:3 (in words) (enzyme of SEQ ID NO:3 [6]): able to catalyze; reduction of cyclic imine by enzyme of SEQ ID NO:4 (in words) (enzyme of SEQ ID NO:4 [7]): able to catalyze; reduction of cyclic imine by enzyme of SEQ ID NO:1 (in words) (enzyme of SEQ ID NO:1 [8]): able to catalyze

SMILES | Specific activity, SEQ ID NO: 3 (enzyme of SEQ ID NO:3 [3]) | Specific activity, SEQ ID NO: 2 (enzyme of SEQ ID NO:2 [4]; [10]) | Specific activity, SEQ ID NO: 1 (enzyme of SEQ ID NO:1 [2]; [10]) | further results
CC(=O)C1CCCCC1 | 64.0^b mU.mg^-1 | – | 2.1^b mU.mg^-1 | –
